What was measured:
[1] = Precipitating activity: rumen fluid containing manganese compound titrated with 1.0M Na2S, silver/sulfide electrode; parameters: species or system Holstein cows; details: 100 mM MnO2(IV) in rumen fluid
Experimental: Next, 0.28 g of MnO(II) was placed in a 100 ml beaker and 20 ml of rumen fluid was added. Then 0.17 g of MnO2(IV) was placed in 100 ml beaker and 20 ml of rumen fluid was added. Each of these compositions, in addition to a rumen fluid control, was then titrated with a 1.0M solution of Na2S. The progress of the reaction was followed using the same silver/sulfide electrode set-up described above (Orion, Ion Plus Silver/Sulfide 9616BNWP).

[2] = Titration of approx. 200 mM sulfide in 24 hour old rumen fluid with 1 M MnCl2, BaCl2 or CaCl2, silver/sulfide electrode; parameters: species or system Holstein cows
Experimental: 24 hour old undiluted rumen fluid from rumen fistulated Holstein cows was obtained. 4 ml of Na2S in water (approximately 1 M) was added to 16 ml of the rumen fluid. The final concentration of sulfide ion in the rumen fluid was approximately 200 mM. […] The progress of the reaction was followed using the same silver/sulfide electrode set-up described above (Orion, Ion Plus Silver/Sulfide 9616BNWP).

Which results are given for [O]=[Mn]=[O] [MnO2(IV)]?
mVolts ([1]; Vol 1M Na2S 0.0): 597.2 mVolts; mVolts ([1]; Vol 1M Na2S 0.1): 672.5 mVolts; mVolts ([1]; Vol 1M Na2S 0.2): 679.4 mVolts; mVolts ([1]; Vol 1M Na2S 0.3): 688.1 mVolts; mVolts ([1]; Vol 1M Na2S 0.4): 698.0 mVolts; mVolts ([1]; Vol 1M Na2S 0.5): 699.4 mVolts; mVolts ([1]; Vol 1M Na2S 0.7): 709.7 mVolts; mVolts ([1]; Vol 1M Na2S 0.8): 720.0 mVolts; mVolts ([1]; Vol 1M Na2S 0.9): 728.2 mVolts; mVolts ([1]; Vol 1M Na2S 1.0): 738.1 mVolts; mVolts ([1]; Vol 1M Na2S 1.1): 732.5 mVolts; mVolts ([1]; Vol 1M Na2S 1.2): 737.4 mVolts; mVolts ([1]; Vol 1M Na2S 1.3): 740.0 mVolts; mVolts ([1]; Vol 1M Na2S 1.4): 749.2 mVolts; mVolts ([1]; Vol 1M Na2S 1.5): 742.7 mVolts; mVolts ([1]; Vol 1M Na2S 1.8): 762.4 mVolts; mVolts ([1]; Vol 1M Na2S 2.1): 776.0 mVolts; mVolts ([1]; Vol 1M Na2S 2.4): 784.3 mVolts; mVolts ([1]; Vol 1M Na2S 2.6): 791.9 mVolts; mVolts ([1]; Vol 1M Na2S 2.8): 796.6 mVolts; mVolts ([1]; Vol 1M Na2S 3.0): 803.1 mVolts; mVolts ([1]; Vol 1M Na2S 3.2): 806.0 mVolts; mVolts ([1]; Vol 1M Na2S 3.5): 817.4 mVolts; mVolts ([1]; Vol 1M Na2S 3.7): 817.0 mVolts; mVolts ([1]; Vol 1M Na2S 3.9): 816.5 mVolts; mVolts ([1]; Vol 1M Na2S 4.1): 817.2 mVolts

Which results are given for [Ca+2].[Cl-].[Cl-] [CaCl2]?
mVolts ([2]; Volume 0.0 of 1.0M CaCl2, ~200 mM sulfide): 945.1 mVolts; mVolts ([2]; Volume 0.1 of 1.0M CaCl2, ~200 mM sulfide): 939.8 mVolts; mVolts ([2]; Volume 0.3 of 1.0M CaCl2, ~200 mM sulfide): 944.8 mVolts; mVolts ([2]; Volume 0.5 of 1.0M CaCl2, ~200 mM sulfide): 931.6 mVolts; mVolts ([2]; Volume 0.7 of 1.0M CaCl2, ~200 mM sulfide): 931.3 mVolts; mVolts ([2]; Volume 0.9 of 1.0M CaCl2, ~200 mM sulfide): 931.2 mVolts; mVolts ([2]; Volume 1.1 of 1.0M CaCl2, ~200 mM sulfide): 931.1 mVolts; mVolts ([2]; Volume 1.4 of 1.0M CaCl2, ~200 mM sulfide): 930.7 mVolts; mVolts ([2]; Volume 1.6 of 1.0M CaCl2, ~200 mM sulfide): 927.1 mVolts; mVolts ([2]; Volume 1.8 of 1.0M CaCl2, ~200 mM sulfide): 925.7 mVolts; mVolts ([2]; Volume 2.0 of 1.0M CaCl2, ~200 mM sulfide): 924.8 mVolts; mVolts ([2]; Volume 2.2 of 1.0M CaCl2, ~200 mM sulfide): 923.8 mVolts; mVolts ([2]; Volume 2.4 of 1.0M CaCl2, ~200 mM sulfide): 923.0 mVolts; mVolts ([2]; Volume 2.6 of 1.0M CaCl2, ~200 mM sulfide): 921.0 mVolts; mVolts ([2]; Volume 2.8 of 1.0M CaCl2, ~200 mM sulfide): 920.2 mVolts; mVolts ([2]; Volume 3.0 of 1.0M CaCl2, ~200 mM sulfide): 917.5 mVolts; mVolts ([2]; Volume 3.3 of 1.0M CaCl2, ~200 mM sulfide): 916.8 mVolts; mVolts ([2]; Volume 3.4 of 1.0M CaCl2, ~200 mM sulfide): 915.6 mVolts; mVolts ([2]; Volume 3.6 of 1.0M CaCl2, ~200 mM sulfide): 914.9 mVolts; mVolts ([2]; Volume 3.8 of 1.0M CaCl2, ~200 mM sulfide): 914.3 mVolts; mVolts ([2]; Volume 4.0 of 1.0M CaCl2, ~200 mM sulfide): 913.7 mVolts; mVolts ([2]; Volume 4.2 of 1.0M CaCl2, ~200 mM sulfide): 913.1 mVolts; mVolts ([2]; Volume 4.4 of 1.0M CaCl2, ~200 mM sulfide): 912.6 mVolts; mVolts ([2]; Volume 4.6 of 1.0M CaCl2, ~200 mM sulfide): 912.1 mVolts; mVolts ([2]; Volume 4.8 of 1.0M CaCl2, ~200 mM sulfide): 911.0 mVolts; mVolts ([2]; Volume 5.0 of 1.0M CaCl2, ~200 mM sulfide): 910.1 mVolts; mVolts ([2]; Volume 5.2 of 1.0M CaCl2, ~200 mM sulfide): 909.9 mVolts; mVolts ([2]; Volume 5.4 of 1.0M CaCl2, ~200 mM sulfide): 909.5 mVolts; mVolts ([2]; Volume 5.6 of 1.0M CaCl2, ~200 mM sulfide): 908.9 mVolts; mVolts ([2]; Volume 5.8 of 1.0M CaCl2, ~200 mM sulfide): 908.5 mVolts; mVolts ([2]; Volume 6.0 of 1.0M CaCl2, ~200 mM sulfide): 908.0 mVolts; mVolts ([2]; Volume 6.5 of 1.0M CaCl2, ~200 mM sulfide): 906.7 mVolts; mVolts ([2]; Volume 7.0 of 1.0M CaCl2, ~200 mM sulfide): 905.5 mVolts; mVolts ([2]; Volume 7.5 of 1.0M CaCl2, ~200 mM sulfide): 904.5 mVolts; mVolts ([2]; Volume 8.0 of 1.0M CaCl2, ~200 mM sulfide): 903.3 mVolts; mVolts ([2]; Volume 8.5 of 1.0M CaCl2, ~200 mM sulfide): 902.3 mVolts; mVolts ([2]; Volume 9.0 of 1.0M CaCl2, ~200 mM sulfide): 901.3 mVolts; mVolts ([2]; Volume 9.5 of 1.0M CaCl2, ~200 mM sulfide): 900.3 mVolts; mVolts ([2]; Volume 10.0 of 1.0M CaCl2, ~200 mM sulfide): 899.6 mVolts

With [Ba+2].[Cl-].[Cl-] [BaCl2] as the compound, how does the mVolts ([2]; Volume 0.0 of 1.0M BaCl2, ~200 mM sulfide) read?
Its mVolts is 942.6 mVolts.

What about the mVolts ([2]; Volume 0.3 of 1.0M BaCl2, ~200 mM sulfide) of the same compound?
Its mVolts is 943.7 mVolts.

What about the mVolts ([2]; Volume 0.4 of 1.0M BaCl2, ~200 mM sulfide) of the same compound?
The mVolts was 943.3 mVolts.

And the mVolts ([2]; Volume 0.6 of 1.0M BaCl2, ~200 mM sulfide)?
The mVolts was 942.7 mVolts.

What about the mVolts ([2]; Volume 0.8 of 1.0M BaCl2, ~200 mM sulfide) of the same compound?
The mVolts was 941.3 mVolts.

And the mVolts ([2]; Volume 1.0 of 1.0M BaCl2, ~200 mM sulfide)?
The mVolts was 927.0 mVolts.

What about the mVolts ([2]; Volume 1.2 of 1.0M BaCl2, ~200 mM sulfide) of the same compound?
The mVolts was 925.6 mVolts.

What about the mVolts ([2]; Volume 1.4 of 1.0M BaCl2, ~200 mM sulfide) of the same compound?
The mVolts was 923.3 mVolts.

What about the mVolts ([2]; Volume 1.6 of 1.0M BaCl2, ~200 mM sulfide) of the same compound?
Its mVolts is 922.5 mVolts.

What about the mVolts ([2]; Volume 1.8 of 1.0M BaCl2, ~200 mM sulfide) of the same compound?
The mVolts was 921.5 mVolts.

And the mVolts ([2]; Volume 2.0 of 1.0M BaCl2, ~200 mM sulfide)?
The mVolts was 920.9 mVolts.

What about the mVolts ([2]; Volume 2.2 of 1.0M BaCl2, ~200 mM sulfide) of the same compound?
Its mVolts is 920.5 mVolts.

And the mVolts ([2]; Volume 2.4 of 1.0M BaCl2, ~200 mM sulfide)?
Its mVolts is 920.0 mVolts.

And the mVolts ([2]; Volume 2.6 of 1.0M BaCl2, ~200 mM sulfide)?
Its mVolts is 919.7 mVolts.

What about the mVolts ([2]; Volume 2.8 of 1.0M BaCl2, ~200 mM sulfide) of the same compound?
The mVolts was 918.8 mVolts.

What about the mVolts ([2]; Volume 3.0 of 1.0M BaCl2, ~200 mM sulfide) of the same compound?
The mVolts was 918.1 mVolts.

What about the mVolts ([2]; Volume 3.2 of 1.0M BaCl2, ~200 mM sulfide) of the same compound?
Its mVolts is 917.7 mVolts.

What about the mVolts ([2]; Volume 3.4 of 1.0M BaCl2, ~200 mM sulfide) of the same compound?
Its mVolts is 917.2 mVolts.

What about the mVolts ([2]; Volume 3.6 of 1.0M BaCl2, ~200 mM sulfide) of the same compound?
The mVolts was 916.7 mVolts.

And the mVolts ([2]; Volume 3.8 of 1.0M BaCl2, ~200 mM sulfide)?
Its mVolts is 916.0 mVolts.

What about the mVolts ([2]; Volume 4.0 of 1.0M BaCl2, ~200 mM sulfide) of the same compound?
The mVolts was 915.6 mVolts.

And the mVolts ([2]; Volume 4.2 of 1.0M BaCl2, ~200 mM sulfide)?
Its mVolts is 915.0 mVolts.

And the mVolts ([2]; Volume 4.4 of 1.0M BaCl2, ~200 mM sulfide)?
The mVolts was 914.8 mVolts.

And the mVolts ([2]; Volume 4.6 of 1.0M BaCl2, ~200 mM sulfide)?
Its mVolts is 914.4 mVolts.

What about the mVolts ([2]; Volume 4.8 of 1.0M BaCl2, ~200 mM sulfide) of the same compound?
Its mVolts is 913.9 mVolts.

What about the mVolts ([2]; Volume 5.0 of 1.0M BaCl2, ~200 mM sulfide) of the same compound?
Its mVolts is 913.6 mVolts.

And the mVolts ([2]; Volume 5.2 of 1.0M BaCl2, ~200 mM sulfide)?
The mVolts was 913.0 mVolts.

What about the mVolts ([2]; Volume 5.4 of 1.0M BaCl2, ~200 mM sulfide) of the same compound?
The mVolts was 913.0 mVolts.

And the mVolts ([2]; Volume 5.6 of 1.0M BaCl2, ~200 mM sulfide)?
Its mVolts is 912.7 mVolts.

And the mVolts ([2]; Volume 5.8 of 1.0M BaCl2, ~200 mM sulfide)?
The mVolts was 912.0 mVolts.

And the mVolts ([2]; Volume 6.0 of 1.0M BaCl2, ~200 mM sulfide)?
The mVolts was 911.7 mVolts.

And the mVolts ([2]; Volume 6.5 of 1.0M BaCl2, ~200 mM sulfide)?
Its mVolts is 910.7 mVolts.

What about the mVolts ([2]; Volume 7.0 of 1.0M BaCl2, ~200 mM sulfide) of the same compound?
Its mVolts is 910.8 mVolts.

And the mVolts ([2]; Volume 7.5 of 1.0M BaCl2, ~200 mM sulfide)?
The mVolts was 909.5 mVolts.

And the mVolts ([2]; Volume 8.0 of 1.0M BaCl2, ~200 mM sulfide)?
Its mVolts is 908.3 mVolts.

And the mVolts ([2]; Volume 8.5 of 1.0M BaCl2, ~200 mM sulfide)?
The mVolts was 907.4 mVolts.

What about the mVolts ([2]; Volume 9.0 of 1.0M BaCl2, ~200 mM sulfide) of the same compound?
Its mVolts is 906.8 mVolts.

And the mVolts ([2]; Volume 9.5 of 1.0M BaCl2, ~200 mM sulfide)?
Its mVolts is 905.7 mVolts.

What about the mVolts ([2]; Volume 10.0 of 1.0M BaCl2, ~200 mM sulfide) of the same compound?
Its mVolts is 905.0 mVolts.
